# Laboratory results: article PMC4823711, “Allosteric Partial Inhibition of Monomeric Proteases. Sulfated Coumarins Induce Regulation, not just Inhibition, of Thrombin” (Scientific Reports, 2016)
# Entries after “also recorded” stand apart in the source; their conditions may differ.
# Key:
# [1] = target: thrombin (Homo sapiens, UniProt P00734); test: Chromogenic substrate hydrolysis assay, thrombin inhibition (Spectrozyme TH); type: biochemical; design: 6 nM plasma α-thrombin; purchased Haematologic Technologies (Essex Junction, VT); conditions: for thrombin inhibition (in words): up to 250 μM; for efficacy of thrombin inhibition (ΔY) / IC50: pH 7.4, 25 °C; for efficacy of thrombin inhibition (ΔY): at saturation; for IC50: read-out: IC50 against thrombin
# Description: Chromogenic substrate hydrolysis assay was used to measure potency of inhibition, as previously reported. The assay was performed using Flexstation III (Molecular Devices, Sunnyvale, CA) by monitoring substrate hydrolysis at 405 nm. For thrombin and its mutants, 180 μL of buffer (20 mM Tris-HCl, 100 mM NaCl, 2.5 mM CaCl2, 0.1% (polyethylene glycol) PEG 8000, pH 7.4) was added to each well followed by 5 μL of 240 nM thrombin and 10 μL of sulfated coumarin in DMSO to give 0.002 to 250 μM final concentration (or 10 μL of DMSO alone). After incubation for 10 min at 25 °C, 5 μL of 2 mM Spectrozyme TH was added to each well simultaneously and allowed to react for 60 seconds at 25 °C while simultaneously monitoring the reaction to obtain the rate of increase in A405. Identical experimental conditions were used for reactions in the presence of antithrombin, except for 100 nM of antithrombin added prior to the addition of the substrate.
# For factor XIa inhibition studies, 85 μL of buffer (50 mM Tris-HCl, 150 mM NaCl, 0.1% PEG 8000, 0.02% Tween 80, pH 7.4) was added to each well, followed by 7 μL of 15.3 nM enzyme and 3 μL of sulfated coumarin (3.75–500 μM final concentration) and incubated for 10 min at 37 °C. After the incubation period, 5 μL of 6.9 mM S-2366 was added to each well simultaneously and allowed to react for 300 sec at 37 °C. For factor Xa assay, 180 μL of buffer (20 mM Tris-HCl, 100 mM NaCl, 2.5 mM CaCl2, 0.1% PEG 8000, 0.02% Tween 80, pH 7.4) was added to each well followed by 5 μL of 43.5 nM enzyme, 10 μL of sulfated coumarin (0.002–250 μM final concentration). After a 10 min incubation, 5 μL of 5 mM Spectrozyme FXa was added to each well simultaneously and allowed to react for 300 seconds at 37 °C. The slopes generated from each experiment were used to calculate the fractional residual activity (Y) at each concentration of the inhibitor, and analyzed using logistic equation 1, in which YM is the maximum efficacy, Y0 is minimum efficacy and HS is the Hill slope.
# [2] = tested on: thrombin; conditions: cited from earlier work; for efficacy of thrombin inhibition (ΔY): orthosteric inhibitors
# [3] = target: thrombin; design: method as in PMID 2007587; conditions: read-out: affinity for thrombin; cited from earlier work
compound,measurement,setting,value
O=c1oc2cc(OS(=O)(=O)O)ccc2c(-c2ccccc2)c1-c1ccccc1Cl [2d],thrombin inhibition (in words),[1],not all 4-aryl derivatives were active
O=c1oc2cc(OS(=O)(=O)O)ccc2c(-c2ccccc2)c1-c1cccc(Cl)c1 [2e],thrombin inhibition (in words),[1],active
O=c1oc2cc(OS(=O)(=O)O)ccc2c(-c2ccccc2)c1-c1ccc(Cl)cc1Cl [2k],thrombin inhibition (in words),[1],active
O=c1oc2ccc(OS(=O)(=O)O)cc2c(-c2ccccc2)c1-c1ccc(Cl)cc1 [2l],thrombin inhibition (in words),[1],not all 4-aryl derivatives were active
O=c1oc2cc(OS(=O)(=O)O)ccc2c(-c2ccccc2)c1-c1ccc(Br)cc1 [2o],thrombin inhibition (in words),[1],not all 4-aryl derivatives were active
O=c1oc2cc(OS(=O)(=O)O)ccc2c(Cc2ccc(Cl)cc2)c1-c1ccccc1 [2p],thrombin inhibition (in words),[1],active
O=c1oc2cc(OS(=O)(=O)O)ccc2c(-c2ccccc2)c1-c1ccc(O)c(OS(=O)(=O)O)c1 [2w],thrombin inhibition (in words),[1],not all 4-aryl derivatives were active
O=c1oc2c(Cl)cc(Cl)cc2c(-c2ccccc2)c1-c1ccc(OS(=O)(=O)O)cc1 [2x],thrombin inhibition (in words),[1],not all 4-aryl derivatives were active
O=c1oc2cc(OS(=O)(=O)O)ccc2c(-c2ccccc2)c1-c1ccc(OS(=O)(=O)O)cc1 [2y],thrombin inhibition (in words),[1],not all 4-aryl derivatives were active; also recorded: complete absence of inhibition potential
O=c1oc2cc(OCCCn3cc(COc4ccc5c(-c6ccccc6)c(-c6ccc(OS(=O)(=O)O)cc6)c(=O)oc5c4)nn3)ccc2c(-c2ccccc2)c1-c1ccc(OS(=O)(=O)O)cc1 [3a],efficacy of thrombin inhibition (ΔY),[1],73%
same,IC50,[1],≤ 1 µM
O=c1oc2cc(OCCCCn3cc(COc4ccc5c(-c6ccccc6)c(-c6ccc(OS(=O)(=O)O)cc6)c(=O)oc5c4)nn3)ccc2c(-c2ccccc2)c1-c1ccc(OS(=O)(=O)O)cc1 [3b],efficacy of thrombin inhibition (ΔY),[1],58%
same,IC50,[1],≤ 1 µM
O=c1oc2cc(OCCCn3cc(COc4ccc5cc(-c6ccc(OS(=O)(=O)O)cc6)c(=O)oc5c4)nn3)ccc2cc1-c1ccc(OS(=O)(=O)O)cc1 [3c],efficacy of thrombin inhibition (ΔY),[1],60%
CC1CNc2c(cccc2S(=O)(=O)N[C@@H](CCCNC(=N)N)C(=O)N2CC[C@@H](C)C[C@@H]2C(=O)O)C1 (stereo partly shown) [argatroban],efficacy of thrombin inhibition (ΔY),[2],100%
[H]/N=C(/N)c1ccc(NCc2nc3cc(C(=O)N(CCC(=O)O)c4ccccn4)ccc3n2C)cc1 [dabigatran],efficacy of thrombin inhibition (ΔY),[2],100%
Cc1ccc(C(=O)Nc2ccc(S(=O)(=O)O)c3cc(S(=O)(=O)O)cc(S(=O)(=O)O)c23)cc1NC(=O)c1cccc(NC(=O)Nc2cccc(C(=O)Nc3cc(C(=O)Nc4ccc(S(=O)(=O)O)c5cc(S(=O)(=O)O)cc(S(=O)(=O)O)c45)ccc3C)c2)c1 [suramin],IC50,[2]; read-out: IC50 of thrombin inhibition,20 to 40 µM
Heparin hexasaccharide,thrombin inhibition (in words),[2],not an inhibitor
same,Kd,[3],~8 µM
